Series [1] concerns CD-1 mouse whole blood cells. The series can be described thus: deacetylase activity in serum from mouse whole blood contacted with substrate. It is filed as cell-based. Particulars: 300 uM substrate. As to the method:
CD-1 Mouse blood was collected in heparin tubes and cells were counted by Coulter counter (Beckman Coulter, Ville St. Laurent, Quebec). The amount of whole blood containing 1.6×10E6 white blood cells was aliquoted and the volume was brought up to 200 ul with RPMI (+10% FBS). Boc-Ac-Lys-AMC was added to a final concentration of 300 uM. After various amounts of time, the mix was spun (400×g for 5 min), and 50 ul of the supernatant (serum) was transferred to a 96-well plate. The amount of deacetylated product Boc-Lys-AMC present in the supernatant was detected by adding an equal volume of the developer mix and reading after 15 minutes incubation. […] Thus total HDAC activity in primary cells could be easily monitored in bodily fluid where animals were contacted with HDAC substrates ex vivo.

The next series has as its system 293T cells. Kind of series: intracellular and excellular deacetylase activity of 293T cells. It is filed as cell-based, human. As to conditions: 300 uM substrate. As to the method: Freshly trypsinized cells (293T) were dispensed into 96-well black Costar E1A/RIA plates (Corning Inc., Corning, N.Y.). Small molecule substrate Boc-Lys(Ac)-AMC (Bachem Biosciences Inc., King of Prussia, Philadelphia) were added to cell suspension with the final concentration of 300 uM. Cells were placed in 37° C. incubator with 5% CO2 for indicated time period. Supernatant was collected if necessary and subject to spinning. Reaction was stopped by adding a freshly prepared Fluor-de-Lys™ developer (Biomol, Plymouth Meeting, Philadelphia) with 1 uM TSA (Biomol, Plymouth Meeting, Philadelphia) in assay buffer (25 mM Tris, HCl pH8.0, 137 mM NaCl, 2.7 mM KCl, 1 mM MgCl2) plus 1% NP-40 into supernatant or cell pellets. Fluorescence was developed for 15 minutes at 37° C. and read in a fluorometer (SPECTRAMAX GeminiXS, Molecular Devices, Sunnylvale, Calif.) with an excitation wavelength at 360 nm, emission at 470 nm, and a cutoff of 435 nm. […] In contrast, when there is no substrates added, neither supernatant from cultured cells nor cell pellets have HDAC activity.

The test system of series [2] is Class I and Class II HDACs. Kind of series: enzymatic reactivity of substrates for Class I and Class II HDACs. It is filed as biochemical. As to conditions: FIG. 12 legend. The protocol: (§1) A 30 mM stock of Boc-Lys(TFA)-AMC substrate was prepared in DMSO. 2 μl test compound in DMSO was diluted in 50 μl buffer (25 mM HEPES, pH 8.0, 137 mM NaCl, 2.7 mM KCl, 1 mM MgCl2, 0.1% BSA) and pre-incubated with Class II HDAC enzyme (30 μl of a final enzyme concentration of 0.1-0.2 nM) for 10 minutes at room temperature. Reaction was started by adding 18 μl Boc-Lys(TFA)-AMC substrate and incubating at 37° C. for 20-30 minutes. The reaction was stopped by adding 50 μl trypsin (1 mg/ml) and a known HDAC inhibitor. The plate was then incubated in the dark for 20 minutes at room temperature and read with Ex=360 nm, Em=470 nm, cutoff filter at 435 nm.
as §1, with “of Boc-Lys(thioAc)-AMC” for “of Boc-Lys(TFA)-AMC”, “in 15” for “in 50”, “enzyme (15” for “enzyme (30”, “of 50-500” for “of 0.1-0.2”, “μl Boc-Lys(thioAc)-AMC” for “μl Boc-Lys(TFA)-AMC”, “for 30-60” for “for 20-30”

The test system of the next series is 293T. Kind of series: whole cell deacetylase assay with Boc-Lys(Ac)-AMC in 293T cells. Particulars: read-out: whole cell deacetylase IC50, 293T.
The test system of the next series is HCT116. The series can be described thus: whole cell deacetylase assay with Boc-Lys(Ac)-AMC in HCT116 cells.
In a further series the test system is Jurkat T. Kind of series: whole cell deacetylase assay with Boc-Lys(Ac)-AMC in Jurkat T cells. Particulars: read-out: whole cell deacetylase IC50, Jurkat T.
The test system of a further series is A549. The series can be described thus: whole cell deacetylase assay with Boc-Lys(Ac)-AMC in A549 cells.
Another series concerns Du145. Kind of series: whole cell deacetylase assay with Boc-Lys(Ac)-AMC in Du145 cells.
The test system of series [3] is total HDAC activity in human white blood cells. Kind of series: ex vivo inhibition of whole cell HDAC activity in human white blood cells. It is filed as cell-based. Particulars: 16 hours incubation; Boc-Lys(ac)-AMC substrate. As to the method: Whole blood (human or mouse) was centrifuged at 2500 rpm for 10 minutes at ambient temperature in a Sorvall RT-7 centrifuge (Mandel Scientific Co., Guelph, Ontario). Plasma was removed and buffy coat was collected. Five volumes of Erythrocyte Lysis Buffer (EL) (Qiagen Canada Inc., Mississauga, Ontario) were added to buffy coat. Buffy coat was incubated on ice for 20 minutes before it was centrifuged at 400 g for 10 minutes at 4° C. Supernatant was removed and buffy coat was washed twice with EL buffer and re-centrifugation. Buffy coat was resuspended in RPMI media and cells (white blood cells) were counted with trypan blue exclusion. White blood cells were plated into 96-well dish in RPMI plus 10% fetal bovine serum. HDAC small molecule substrate Boc-Lys(ac)-AMC was added to cell suspensions and incubated with cells for 90 minutes at 37° C. before reaction was stopped, and fluorescence was developed and read.
Human white blood cells (buffy coat) isolated from human donors were plated into 96-well dish in RPMI plus 10% fetal bovine serum. HDAC inhibitors with a range of dilutions were incubated with cells for 16 hours at 37 C with 5% CO2. HDAC small molecule substrate Boc-Lys(ac)-AMC was added into cell suspensions and incubated with cells for 90 minutes before reaction was stopped, and fluorescence was developed and read.

The next series deals with Panc-1. The series can be described thus: whole cell deacetylase assay with Boc-Lys(Ac)-AMC in Panc-1 cells. As to conditions: read-out: whole cell deacetylase IC50, Panc-1, pre-incubated with inhibitor 16 hours, Boc-Lys(Ac)-AMC substrate, mean of at least 2 experiments.

Molecules are shown by their SMILES. Structures can show the parent of a compound that is named as a salt. Where two headings read alike, the source gives them in different places. Bounds are passed on as bounds.

Consider seven molecules from patent publication US20080199897A1, “CLASS II HISTONE DEACETYLASE WHOLE CELL ENZYME ASSAY” (MethylGene Inc., priority 2007, published 2008).

The IC50 is the concentration that gives 50% inhibition.

Protocol for A549: (§2) Freshly trypsinized cells were dispensed into 96-well black Costar E1A/RIA plates (Corning Inc., Corning, N.Y.). Small molecule substrate Boc-Lys(Ac)-AMC (Bachem Biosciences Inc., King of Prussia, Philadelphia) was added to cell suspension with the final concentration of 300 uM. Cells were placed in 37° C. incubator with 5% CO2 for 90 minutes. […] With the presence of 1% NP-40, both excellular and intracellular HDAC activity was measured in cultured cells altogether. Fluorescence was developed for 15 minutes at 37 C and read in a fluorometer (SPECTRAMAX GeminiXS, Molecular Devices, Sunnylvale, Calif.) with an excitation wavelength at 360 nm, emission at 470 nm, and a cutoff of 435 nm.
Protocol for Du145: as §2
Protocol for HCT116: as §2
Protocol for Jurkat T: as §2
Protocol for Panc-1: as §2

As for `CC(=O)NCCCC[C@H](NC(=O)OC(C)(C)C)C(=O)Nc1ccc2c(C)cc(=O)oc2c1` [Boc-Lys(Ac)-AMC], the cell permeability entry was “permeable to go inside cells” in series [1] and “could permeablize into cells” in the series on 293T cells. The “HDAC class specificity of substrate” value in [2] was “specific for Class I HDACs, especially HDAC1, HDAC2 and HDAC6”.
Consider `Cc1cc(=O)oc2cc(NC(=O)[C@H](CCCCNC(=O)C(F)(F)F)NC(=O)OC(C)(C)C)ccc12` [Boc-Lys(Tfa)-AMC], for which the “HDAC class specificity of substrate” value in series [2] was “specific for Class II HDACs”.
`CC(=S)NCCCCC(NC(=O)OC(C)(C)C)C(=O)Nc1ccc2c(C)cc(=O)oc2c1` (stereo not shown) [Boc-Lys(thioAc)-AMC]: the “HDAC class specificity of substrate” value in series [2] is recorded as “specific for Class II HDACs”.
On to `Cc1cc(=O)oc2cc(NC(=O)[C@H](CCCCN)NC(=O)OC(C)(C)C)ccc12` [Boc-Lys-AMC], for which, in series [1], the cell permeability entry is “permeable to come out from cells”.
Turning to `O=C(/C=C/c1ccc(CN(CCO)CCc2c[nH]c3ccccc23)cc1)NO` [LAQ-824], the IC50 stood at 40 nM with 293T (Homo sapiens, HEK-293T); 60 nM in the series with HCT116 (Homo sapiens, HCT-116, read-out: whole cell deacetylase IC50, HCT116); 40 nM with Jurkat T (Homo sapiens, Jurkat); 20 nM in the series with A549 (Homo sapiens, A549, read-out: whole cell deacetylase IC50, A549); 50 nM with Du145 (Homo sapiens, DU-145, read-out: whole cell deacetylase IC50, Du145). Moreover, the “inhibition of whole cell HDAC activity in human white blood cells” value in [3] is recorded as “dose-dependent inhibition”.
Regarding `Nc1ccccc1NC(=O)c1ccc(CNC(=O)OCc2cccnc2)cc1` [MS-275], the concentration for half-maximal inhibition (IC50) with 293T (293T cells, pre-incubated with inhibitor 16 hours, Boc-Lys(Ac)-AMC substrate, mean of at least 2 experiments) worked out at 2000 nM; in the series on HCT116 (read-out: whole cell deacetylase IC50, HCT116, HCT116 cells, pre-incubated with inhibitor 16 hours, Boc-Lys(Ac)-AMC substrate, mean of at least 2 experiments), 3000 nM; in the series with Jurkat T (Jurkat T cells, pre-incubated with inhibitor 16 hours, Boc-Lys(Ac)-AMC substrate, mean of at least 2 experiments), 300 nM; in the series on Panc-1, 500 nM; in the series with A549 (read-out: whole cell deacetylase IC50, A549, A549 cells, pre-incubated with inhibitor 16 hours, Boc-Lys(Ac)-AMC substrate, mean of at least 2 experiments), 400 nM; in the series with Du145 (read-out: whole cell deacetylase IC50, Du145, Du145 cells, pre-incubated with inhibitor 16 hours, Boc-Lys(Ac)-AMC substrate, mean of at least 2 experiments), 300 nM.
For the molecule `CC(=O)O[C@H]1C(=O)[C@@]2(C)[C@H]([C@H](OC(=O)c3ccccc3)[C@]3(O)C[C@H](OC(=O)[C@H](O)[C@@H](NC(=O)c4ccccc4)c4ccccc4)C(C)=C1C3(C)C)[C@]1(OC(C)=O)CO[C@@H]1C[C@@H]2O` [Taxol], the IC50 in the series on 293T (Homo sapiens, HEK-293T) is greater than 50000 nM.
